This passage reports EC50 results from patent publication US7879852B2, “Melanocortin receptor agonists” (LG Life Sciences Ltd., priority 2006, dated 2011).

This experiment deals with T1, human melanocortin receptor 4 (MC4R) (Homo sapiens, UniProt P32245).
T1 construct: expressed in transfected cells; grown with 200 ug/ml Geneticin
Nature of the experiment: Luciferase assay. Format: cell-based. To be noted: agonistic activity at MC4R (Table 18); patent does not state whether luciferase or cAMP assay. As to the method:
Cell lines expressing human melanocortin receptor 4 (MC4R) were dissociated from tissue culture dishes by rinsing with Ca^++, Mg^++ free DPBS, treated with 1× Trypsin/EDTA solution for 1 min at 37° C., and resuspended with DMRM (GIBCO-BRL) supplemented with 10% FBS. The cells were counted and diluted with DMEM supplemented with 10% FBS and 200 ug/ml of Geneticin to […]. 90 ul of cell suspension was plated onto each well of 96-well black and clear bottom culture plates (Costar). After the incubation for 24 h in the atmosphere of 6% CO2 at 37° C., 10 ul of NDP-MSH and test compounds diluted in DMSO were added to each well. The final DMSO concentration was 1%. After 4 h of incubation in the atmosphere of 6% CO2 at 37° C., 50 ul of Bright-Glo (Promega) was added to each well. Luciferase activity was measured by using L-Max luminometer (Molecular Device). The amount of luciferase activity induced by treatment with NDP-MSH was defined as 100% to obtain the relative efficacy of test compounds. The EC0.5 MSH was defined as the concentration of test compounds that results in half maximal activity of NDP-MSH. The EC50 was defined as the concentration of test compound that results in half maximal activity of its own.
In general terms: cAMP levels reflect the balance of adenylyl cyclase and phosphodiesterase activity.

T1 sequence (P32245 whole entry): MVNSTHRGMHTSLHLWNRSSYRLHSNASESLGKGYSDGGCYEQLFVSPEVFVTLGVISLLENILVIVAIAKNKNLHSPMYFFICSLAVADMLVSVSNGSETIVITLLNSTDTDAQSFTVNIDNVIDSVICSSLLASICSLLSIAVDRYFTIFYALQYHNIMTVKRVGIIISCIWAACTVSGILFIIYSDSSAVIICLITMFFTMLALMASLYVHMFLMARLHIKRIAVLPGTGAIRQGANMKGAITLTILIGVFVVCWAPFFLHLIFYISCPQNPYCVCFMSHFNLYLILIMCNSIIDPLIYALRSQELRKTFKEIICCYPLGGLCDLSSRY

As for `CN(C)C(=O)[C@@H]1C[C@H](N(C(=O)C(C)(C)C)C2CCC(C)(C)CC2)CN1C(=O)[C@@H]1CN(C(C)(C)C)C[C@H]1c1ccc(F)cc1F` [Example A1, (4S)-1-{[(3S,4R)-1-tert-butyl-4-(2,4-difluorophenyl)pyrrolidine-3-yl]carbonyl}-4-[(4,4-dimethylcyclohexyl)(2,2-dimethylpropanoyl)amino]-N,N-dimethyl-L-prolineamide], a half-maximal response (EC50) required 13 nM. In the case of `CCNC(=O)[C@@H]1C[C@H](N(C(=O)[C@@H]2CCCO2)C2CCC(C)(C)CC2)CN1C(=O)[C@@H]1CN(C(C)(C)C)C[C@H]1c1ccc(Cl)cc1` [Example A3, (4S)-1-{[(3S,4R)-1-tert-butyl-4-(4-chlorophenyl)pyrrolidine-3-yl]carbonyl}-4-{(4,4-dimethylcyclohexyl)[(2S)-tetrahydrofuran-2-ylcarbonyl]amino}-N-ethyl-L-prolineamide], the 50% effective concentration (EC50) (usually the concentration at which the effect is half-maximal) turned out to be 12 nM. Consider `CCN(C)C(=O)[C@@H]1C[C@H](N(C(=O)C(C)(C)CO)C2CCC(C)(C)CC2)CN1C(=O)[C@@H]1CN(C(C)(C)C)C[C@H]1c1ccc(Cl)cc1` [Example A4, (4S)-1-{[(3S,4R)-1-tert-butyl-4-(4-chlorophenyl)pyrrolidine-3-yl]carbonyl}-4-[(4,4-dimethylcyclohexyl)(3-hydroxy-2,2-dimethylpropanoyl)amino]-N-ethyl-N-methyl-L-prolineamide], for which the half-maximal effective concentration (EC50) came out at 3 nM. Then `CN(C)C(=O)[C@@H]1C[C@H](N(C(=O)C(C)(C)C)C2CCC(F)(F)CC2)CN1C(=O)[C@@H]1CN(C(C)(C)C)C[C@H]1c1ccc(Cl)cc1` [Example A5, (4S)-1-{[(3S,4R)-1-tert-butyl-4-(4-chlorophenyl)pyrrolidine-3-yl]carbonyl}-4-[(4,4-difluorocyclohexyl)(2,2-dimethylpropanoyl)amino]-N,N-dimethyl-L-prolineamide], with 33 nM. Consider `CCNC(=O)[C@@H]1C[C@H](N(C(=O)C(C)(C)C)C2CCC(F)(F)CC2)CN1C(=O)[C@@H]1CN(C(C)(C)C)C[C@H]1c1ccc(Cl)cc1` [Example A6, (4S)-1-{[(3S,4R)-1-tert-butyl-4-(4-chlorophenyl)pyrrolidine-3-yl]carbonyl}-4-[(4,4-difluorocyclohexyl)(2,2-dimethylpropanoyl)amino]-N-ethyl-L-prolineamide], for which the response was half-maximal at 24 nM (EC50). `CN1C[C@@H](C(=O)N2C[C@@H](N(C(=O)C(C)(C)C)[C@H]3CC[C@@H](C)CC3)C[C@H]2C(N)=O)[C@H](c2ccc(Cl)cc2)C1` [Example A7, (4S)-1-{[(3S,4R)-4-(4-Chlorophenyl)-1-methylpyrrolidine-3-yl]carbonyl}-4-[(2,2-dimethylpropanoyl)(cis-4-methylcyclohexyl)amino]-L-prolineamide] returned a concentration for a half-maximal effect (EC50) of 24 nM. Consider `CC1(C)CCC(N(C(=O)C(C)(C)C)[C@H]2CCN(C(=O)[C@@H]3CN(C(C)(C)C)C[C@H]3c3ccc(Cl)cc3)C2)CC1` [Example A9, N-[(3S,4R)-1-{[(3S,4R)-1-T-butyl-4-(4-chlorophenyl)pyrrolidine-3-yl]carbonyl}pyrrolidine-3-yl]-N-(4,4-dimethylcyclohexyl)-2,2-dimethylpropaneamide], for which a half-maximal response (EC50) required 45 nM. Then `CCN(C)C(=O)[C@@H]1C[C@H](N(C(=O)C(C)(C)C)C2CCC(F)(F)CC2)CN1C(=O)[C@@H]1CN(C(C)(C)C)C[C@H]1c1ccc(Cl)cc1` [Example A75], with 79 nM; and `CCN(C)C(=O)[C@@H]1C[C@H](N(C(=O)[C@@H]2CCCO2)C2CCC3(CC2)CC3)CN1C(=O)[C@@H]1CN(C(C)(C)C)C[C@H]1c1ccc(Cl)cc1` [Example A90], with 30 nM. Consider `CC(=O)N(C1CCC(C)(C)CC1)[C@H]1C[C@@H](C(=O)N2CCOCC2)N(C(=O)[C@@H]2CN(C(C)(C)C)C[C@H]2c2ccc(Cl)cc2)C1` [Example A96], for which the EC50 was 38 nM. `CC1(C)CCC(N(C(=O)C(C)(C)C)[C@H]2C[C@@H](C(=O)Nc3ccccc3)N(C(=O)[C@@H]3CN(C(C)(C)C)C[C@H]3c3ccc(Cl)cc3)C2)CC1` [Example A99] returned a concentration for a half-maximal effect (EC50) of 69 nM. Then `CC1(C)CCC(N(C(=O)C(C)(C)C)[C@H]2C[C@@H](CO)N(C(=O)[C@@H]3CN(C(C)(C)C)C[C@H]3c3ccc(Cl)cc3)C2)CC1` [Example B4, N-[(3S,5S)-1-{[(3S,4R)-1-tert-butyl-4-(4-chlorophenyl)pyrrolidine-3-yl]carbonyl}-5-(hydroxymethyl)pyrrolidine-3-yl]-N-(4,4-dimethylcyclohexyl)-2,2-dimethylpropaneamide], with 16 nM; and `CC1CCC(N(C(=O)C(C)(C)C)C2CC(C(N)=S)N(C(=O)C3CN(C(C)(C)C)CC3c3ccc(F)cc3F)C2)CC1` (stereo not drawn) [Example B28], with 14 nM. As for `CC(C)C(=O)N(C1CCC(C)(C)CC1)C1CC(C=NO)N(C(=O)C2CN(C(C)(C)C)CC2c2ccc(F)cc2F)C1` (stereo not drawn) [Example B33], it took 65 nM to reach a half-maximal effect (EC50). As for `CC1(C)CCC(N(C(=O)C(C)(C)C(N)=O)[C@H]2CCN(C(=O)C3CN(C(C)(C)C)C[C@H]3c3ccc(Cl)cc3)C2)CC1` (stereo partly drawn) [Example C1, N-[(3S)-1-{[(3S,4R)-1-tert-butyl-4-(4-chlorophenyl)pyrrolidine-3-yl]carbonyl}pyrrolidine-3-yl]-N-(4,4-dimethylcyclohexyl)-2,2-dimethylmaloneamide], the EC50 was found to be 38 nM. On to `COCC(C)(C)C(=O)N(C1CCC(C)(C)CC1)[C@H]1CCN(C(=O)[C@@H]2CN(C(C)(C)C)C[C@H]2c2ccc(Cl)cc2)C1` [Example C2, N-[(3S)-1-{[(3S,4R)-1-tert-butyl-4-(4-chlorophenyl)pyrrolidine-3-yl]carbonyl}pyrrolidine-3-yl]-N-(4,4-dimethylcyclohexyl)-3-methoxy-2,2-dimethylpropaneamide], for which the response was half-maximal at 11 nM (EC50). In the case of `CC1(C)CCC(N(C(=O)C(C)(C)/C=N/O)[C@H]2CCN(C(=O)[C@@H]3CN(C(C)(C)C)C[C@H]3c3ccc(Cl)cc3)C2)CC1` [Example C3, (3E)-N-[(3S)-1-{[(3S,4R)-1-tert-butyl-4-(4-chlorophenyl)pyrrolidine-3-yl]carbonyl}pyrrolidine-3-yl]-N-(4,4-dimethylcyclohexyl)-3-(hydroxyimino)-2,2-dimethylpropaneamide], the 50% effective concentration (EC50) was determined as 15 nM.

Take `CC(=O)C(C)(C)C(=O)N(C1CCC(C)(C)CC1)[C@H]1CCN(C(=O)[C@@H]2CN(C(C)(C)C)C[C@H]2c2ccc(Cl)cc2)C1` [Example C5, N-[(3S)-1-{[(3S,4R)-1-tertbutyl-4-(4-chlorophenyl)pyrrolidine-3-yl]carbonyl}pyrrolidine-3-yl]-N-(4,4-dimethylcyclohexyl)-2,2-dimethyl-3-oxobutaneamide]: the EC50 came out at 6 nM. Then `CCN(C)C(=O)[C@@H]1C[C@H](N(C(=O)C(C)(C)COC)C2CCC(F)(F)CC2)CN1C(=O)C1CN(C(C)(C)C)C[C@H]1c1ccc(Cl)cc1` (stereo partly drawn) [Example C9, N-[(3S)-1-{[(3S,4R)-1-tert-butyl-4-(4-chlorophenyl)pyrrolidine-3-yl]carbonyl}pyrrolidine-3-yl]-N-[(4,4-difluorocyclohexyl)(3-methoxy-2,2-dimethylpropanoyl)amino]-N-ethyl-N-methyl-L-prolineamide], with 41 nM.

Regarding `CN(C)C(=O)[C@@H]1C[C@H](N(C(=O)C(C)(C)C(N)=O)C2CCC(C)(C)CC2)CN1C(=O)C1CN(C(C)(C)C)C[C@H]1c1ccc(Cl)cc1` (stereo partly drawn) [Example C12, N-{(3S,5S)-1-{[(3S,4R)-1-tert-butyl-4-(4-chlorophenyl)pyrrolidine-3-yl]carbonyl}-5-[(dimethylamino)carbonyl]pyrrolidine-3-yl}-N-(4,4-dimethylcyclohexyl)-2,2-dimethylmaloneamide], a half-maximal effect (EC50) was put at 95 nM. On to `CCN(C)C(=O)[C@@H]1C[C@H](N(C(=O)C(C)(C)CS)C2CCC(C)(C)CC2)CN1C(=O)[C@@H]1CN(C(C)(C)C)C[C@H]1c1ccc(F)cc1F` [Example C14, (4S)-1-{[(3S,4R)-1-tert-butyl-4-(2,4-difluorophenyl)pyrrolidine-3-yl]carbonyl}-4-[(4,4-dimethylcyclohexyl)(3-mercapto-2,2-dimethylpropanoyl)amino]-N-ethyl-N-methyl-L-prolineamide], for which it took 66 nM to reach a half-maximal effect (EC50). Then `COCC(C)(C)C(=O)N(C1CCC(F)(F)CC1)[C@H]1C[C@@H](C(=O)N(C)C)N(C(=O)[C@@H]2CN(C(C)(C)C)C[C@H]2c2ccc(Cl)cc2)C1` [Example C24], with 22 nM. In turn, `CN(C)C(=O)[C@@H]1C[C@H](N(C(=O)C(C)(C)C)c2ccc(F)cc2F)CN1C(=O)[C@@H]1CN(C(C)(C)C)C[C@H]1c1ccc(Cl)cc1` [Example D1, (4S)-1-{[(3S,4R)-1-tert-butyl-4-(4-chlorophenyl)pyrrolidine-3-yl]carbonyl}-4-[(2,4-difluorophenyl)(2,2-dimethylpropanoyl)amino]-N,N-dimethyl-L-prolineamide] gave an EC50 of 47 nM. `CC1CCC(N(C(=O)c2ccoc2)C2CCN(C(=O)C3CNCC3c3ccc(Cl)cc3)C2)CC1` (stereo not drawn) [Example E1-14]: a half-maximal response (EC50) required 23 nM. Then `CC1CCC(N(C(=O)C2=CCOC2)C2CCN(C(=O)C3CNCC3c3ccc(Cl)cc3)C2)CC1` (stereo not drawn) [Example E1-23], with 21 nM; and `CC1(C)CCC(N(C(=O)C(C)(C)CO)[C@H]2CCN(C(=O)[C@@H]3CN(C(N)=O)C[C@H]3c3ccc(Cl)cc3)C2)CC1` [Example E2-2], with 7 nM. Consider `CC1(C)CCC(N(C(=O)C(C)(C)C)[C@H]2CCN(C(=O)[C@@H]3CN(C(N)=O)C[C@H]3c3ccc(Cl)cc3)C2)CC1` [Example E2-3], for which the EC50 is 45 nM.
